Laboratory results as given in patent US20040033276A1, “Coating composition for cereals having a preventive or treating effect on diabetes and cereals coated thereby” (priority 2002, published 2004).

System: α-glucosidase
Assay: Inhibition of α-glucosidase by extracts of herb medicine
Assay type: biochemical
Settings: 0.1 ml extract
Method: Inhibitory activities of various herb extracts on the activity of α-glucosidase, which catalyzes the digestion of a polysaccharide to monosaccharides, were examined as follows. Extracts of various herb medicines listed in Table 4 below were prepared in accordance with the method of Reference Example 2. Added to 0.27 ml of 2 mM substrate (p-nitrophenyl-α-D-glucopyranoside, Sigma, U.S.A.) were 0.03 ml of α-glucosidase(Sigma, U.S.A.), 0.2 ml of 20 mM phosphate buffer (pH 7.0) and 0.1 ml of respective extracts obtained above. The resulting mixture was incubated in a 37° C. thermostat(Vision Science, Korea) for 30 minutes, and 0.5 ml of 1 M glycine-NaOH (pH 9.0) was added thereto to stop the reaction. […] Negative control was treated with distilled water instead of the herb extract, and positive control, with acarbose(Glucobay™, Bayer) and DNJ (Deoxynojirimycin, Dep. Seruculture & Entomology, NIAST), which are representative α-glucosidase inhibitors. Activities of the respective extracts for inhibiting α-glucosidase were calculated by the following equation and the result is shown in Table 4. Inhibition (%)=(1−Absorbance of a sample/Absorbance of the negative control)×100

Structure (SMILES): OC[C@H]1NC[C@H](O)[C@@H](O)[C@@H]1O [DNJ, Deoxynojirimycin]
- Inhibition (%) (relative to negative control): 80.79%
- Absorbance (405 nm, 37° C., 30 minutes): 0.7641 ± 0.0021
